Test results as given in patent publication US20060127967A1, “In vitro test for studying compound predicting pharmacologic and/or harmacokinetic and/or pharmacodynamic parameters of a compound” (priority 2002, published 2006).
Structures can show the parent of a compound that is named as a salt.

What was measured:
[1] = Permeation through Integra bi-layer membrane and human skin in Valia-Chien diffusion cells; assay type: in vitro ADME; conditions: aqueous solution pH 7.2, receiver Tris buffer pH 7.2, 8 hours, permeation area 0.64 cm^2, HCl
Procedure: Permeation studies with aqueous solution of Propranolol HCl (pH 7.2) through Integra and human skin were carried out in Valia-Chien diffusion cells. The effective permeation area was 0.64 cm^2. The receiver compartment contained Tris buffer (pH 7.2) and the experiment lasted for 8 hours. The samples were withdrawn at 0, 1, 2, 4, 6 and 8 hours and the quantity of propranolol HCl permeated through the membrane was analyzed by validated HPLC method.

Tetrahymena thermophila = Tetrahymena thermophila cell area, computerized morphometric/image analysis bioassay; assay type: cell-based; conditions: 6 hours exposure, various concentrations, at least 100 cells per sample
Procedure: Tetrahymena thermophila was grown axenically at 34 ?C in proteosepeptone yeast salts (PPYS) complex medium. Test cultures were prepared by inoculating the protozoa from a stock culture into PPYS to produce initial culture of ˜5000 cell/ml. The cell cultures were then grown for 24 hours at 34 ?C. In the beginning of the experiment the culture was transferred into 3 ml test tubes and exposed to the various concentrations of the tested material. Samples were withdrawn 6 hours following the exposure to the tested material. The samples fixed with formaldehyde solution were placed on the hemocytometer, observed under microscope and the area of tetrahymena was evaluated by computerized morphometric system/image analysis program. For each sample at least 100 cells were evaluated.

Row | permeation constant (Kp) through Integra as compared to human skin [1] | permeation constant (Kp) through Integra as compared to human skin ([1]; listed as propranolol) | Structure (SMILES) | change in Tetrahymena thermophila cell area with increasing drug concentration in the medium (Tetrahymena thermophila)
1 | close similarity | similar | CC(C)NCC(O)COc1cccc2ccccc12 (stereo not shown) [Propranolol HCl] | –
2 | – | – | O=C([O-])c1ccccc1O.[Na+] [sodium salicylate] | decrease in cell area
3 | – | – | C=CCc1ccccc1OCC(O)CNC(C)C (stereo not shown) [Alprenolol hydrochloride] | decrease in the cell area
